Experimental data taken from patent US20220409643A1, “ROR Gamma T Inhibitors and Topical Uses Thereof” (Dermira, inc., priority 2019, published 2022).

Tests used:
[1] = test system: imiquimod (IMQ)-induced psoriasis in mice; assay: IMQ-induced psoriasis in mice, topical treatment; format: in vivo; settings: 0.05% topical clobetasol cream, 10% body surface area
Text: Topical application of imiquimod (IMQ), a TLR7/8 ligand and potent immune activator, is applied to the shaved backs and ears of mice to induce psoriasis. Information on the murine model of IMQ-induced psoriasis can be found at van der Fits L, Mourits S, Voerman JS, Kant M, Boon L, Laman JD, et al. Imiquimod-induced psoriasis-like skin inflammation in mice is mediated via the IL-23/IL-17 axis. J Immunol. 2009; 182:5836-45, which is hereby incorporated by reference in its entirety. Following administration of IMQ, mice ears and skin are observed for erythema, occurrence of scales and thickness after a period of six days. One group of mice were administered 0.05% topical clobetasol cream (10% body surface area), a potent topical steroid, as a positive control, and one group of mice received topical vehicle lacking Compoun 1 (10% body surface area), and one group was administered Compound 1 (3% formulation)(10% body surface area).
The mice were evaluated for erythema, presence of scales, thickness of ear tissue and body weight following administration of the treatments described above. Erythema and scales are determined by comparing the mice to a reference for color and severity of scaling.

Th17 associated genes = assay: expression of Th17 associated genes in skin by real-time quantitative reverse transcription PCR; format: cell-based; settings: skin harvested 24 hours after induction of inflammation
Protocol: Studies were carried out to determine the effect of two RORγt inhibitors of the present disclosure (i.e., Compound 1 and Compound 2, prepared in formulation as described in Example 1) on Th17 associated genes. Skin was harvested from subjects 24 hours after induction of inflammation. The RNA from the samples were isolated, and expression of the genes were quantified through real-time quantitative reverse transcription PCR. Clobetasol was used as a positive control.

IL17A = assay: skin Resident Immune Cell Assay (sRICA), Th17 model, IL17A protein in media; format: cell-based; settings: 100 uM solution in 1% DMSO/OD applied topically to human skin, media collected 24 hours after Th17 activation
Summary of the method: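 Human surgical skin, dermatomed to 750μm, 8 mm biopsies cultured air-liquid in transwells; RORγt inhibitors applied topically at 100 uM in 1% DMSO/OD, up to 24 h before Th17 activation by cytokine/antibody cocktail. IL17A measured in media 24 h post-activation by SiMoA, expressed as % of activated untreated skin.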

For C[C@H]1C[C@H]2[C@@H]3CCC4=CC(=O)C=C[C@]4(C)[C@@]3(F)[C@@H](O)C[C@]2(C)[C@@]1(O)C(=O)CCl [Clobetasol], the “Body weight change / systemic toxicity” value [1] was “significant weight loss”, the CCL-20 gene expression (Th17 associated genes) was 10% reduction and the FoxP3 gene expression (Th17 associated genes) was 6-fold increase. It also gave an IL-17A gene expression (Th17 associated genes) of 68% reduction, an IL-19 gene expression (Th17 associated genes) of 53% reduction and an IL-36γ gene expression (Th17 associated genes) of 60% reduction. It also gave an S100A7 gene expression (Th17 associated genes) of 62% reduction, a SerapinB gene expression (Th17 associated genes) of 65% reduction and a TNFα gene expression (Th17 associated genes) of 25% reduction.

In the case of COc1ccc2c(c1)CCN(C(=O)c1cc(O)no1)[C@H]2C(=O)Nc1cc(F)c(C(C)(C)COCC(F)F)c(F)c1 [(1R)-N-(4-(1-(2,2-difluoroethoxy)-2-methylpropan-2-yl)-3,5-difluorophenyl)-2-((3-hydroxy-1,2-oxazol-5-yl)carbonyl)-6-methoxy-1,2,3,4-tetarhydroisoquinoline-1-carboxamide], the inhibition at 100 µM (IL17A) is reported as 30.3%.

With COc1ccc(C(NC(=O)C2CNC(=O)C2)C(=O)Nc2ccc([Si](C)(C)C)c(F)c2)cc1 (centres unmarked) [N-(2-((3-fluoro-4-(trimethylsilyl)phenyl)amino)-1-(4-methoxyphenyl)-2-oxoethyl)-5-oxopyrrolidine-3-carboxamide] the inhibition at 100 µM (IL17A; Homo sapiens, 24 h) was 65.8%.
